Source: patent publication US12435061B2 (priority 2020, dated 2025)
Where two headings read alike, the source gives them in different places.

Legend:
[1] = set-up: species or system mice; conditions: mouse, in vivo, po
Description: At the beginning of the study, 3 mice were weight before compound treatment. Group of 3 mice received an increasing dose of KM-023 every 24 hours 1 mg/kg, 10 mg/kg, 30 mg/kg, 100 mg/kg, 500 mg/kg once daily, in a volume of 0.2 ml, administered orally. The mice were weighed daily before treatment.
At the end of the experiment, the mice were sacrificed with CO2.

[2] = tested on: SLIGRL-NH2 itching mouse model; assay: SLIGRL-NH2 itching mouse model (Example 17); format: in vivo; conditions: pre-treatment with either dose of oral KM-023
[3] = minipig, in vivo
Description: To assess PK profile of escalating doses of KM-023 administered via PO and IV routes. Animal care was carried out as described above. Animals were observed daily throughout the study period.
PK samples were obtained in the following time points:
On Day 0 and Day 1—time 0, 5 min post injection, 30 min post injection, 1 h post injection, 2 h post injection, 6 h post injection, 24 h post injection (on the following day)
On Day 2, 5 min post injection, 30 min post injection, 1 h post injection, 2 h post injection, 6 h post injection
Plasma samples for PK analysis have been send to Swiss BioQuant AG, Switzerland for further processing.
Methodology used for the detection of KM-023 in minipigs plasma is described in above. In both animals dosed with test item, exposure to KM-023 was detected.

[4] = rat, in vivo
Description: The rats per group for either skin or CSF sample collection contains 9 rats.
Animals were allocated randomly into the following treatment groups.
Group 1: Control—2 untreated, naïve animals for the collection of blood, skin, and CSF at the point of euthanasia.
The same 3 rats were allocated to each alternating time point of bleeding.
Samples of plasma, skin and CSF were sent to Swiss BioQuant AG, Reinach, Switzerland for further analysis.
The extravascular model was used for oral dosing. Sparse sampling option was used for plasma concentration.
The following pharmacokinetic parameters were estimated from the plasma, skin and CSF concentration versus time curve:
tmax Time to reach the maximum plasma concentration read directly from the individual plasma concentration-time curve.
Cmax Maximum plasma concentration read directly from the individual plasma concentration-time curve.
Cmax/doseCmax corrected for dose.
AUC0-t Area under the plasma concentration-time curve from time point zero to last measurable concentration. AUC0-t was calculated according to the “linear up log down” trapezoidal rule.
AUC0-8 h Area under the plasma concentration-time curve from time point zero to time point 8 h after dosing. AUC0-8 h was calculated according to the “linear up log down” trapezoidal rule.
AUC0-8 h/dose AUC0-8 h corrected for dose

[5] = tested on: SLIGRL-NH2 (PAR2 agonist peptide) induced itching in mice; assay: Efficacy of oral KM-023 in SLIGRL-NH2 itching mouse model; format: in vivo; conditions: for Decrease of number of scratches: 30 min before SLIGRL induction, 30 minutes post induction
Excerpt: The aim of this study is to evaluate the efficacy of anti-itching activity of KM-023 in SLIGRL-NH2 (SEQ ID NO: 1) mouse itching model.
Proteinase-activated receptors (PAR) are a group of G-protein coupled receptors which are activated by cleavage of their terminal sequence by serine proteinases. […] Thus, the administration of the murine PAR2 agonist peptide, SLIGRL-NH2 (SEQ ID NO: 1), is an known and acceptable model to assess anti-pruritic compounds in mice.
32 mice in good health status and corresponding to the specifications details above were included in the in vivo phase.
The animals were weighed before treatment. Induction of itching was performed on animals by intradermal administration of SLIGRL-NH2 (SEQ ID NO: 1) peptide in neck (volume about 20 μL).
Oral route was performed by oral gavage using plastic probe 30 min before induction with SLIGRL-NH2 (SEQ ID NO: 1) peptide.
Animals were placed in plexiglass red walls observation devices (for simultaneous observations of 4 mice). Red walls permitted observations of animals by the operator without the possibility for animals to see the operator. Animals were placed in observation cages before induction for 20 to 30 minutes.
Intradermal injections of SLIGRL (SEQ ID NO: 1) was performed on vigil animals in shaved neck and video recording was initiated immediately after injection for a duration of 30 minutes.
Manual image analysis was performed on recorded movies.
Scratching/itching bouts were counted on 6 time periods of 5 minutes (total of 30 min for each mouse).
The scratches were counted at predefined time intervals of 5 minutes post induction and 30 minutes post induction.

Which “Maximal Feasible Dose (MFD)” value [1] does the source give for `Cc1nc(C(=O)N2CCC(c3ccc(-c4ccccc4C4CC4)cc3CO)C2)ccc1O` (centres unmarked) [KM-023] here?
The value was 500 mg/kg.

What about the “number of scratches observed 30 minutes post induction” value [2] of the same compound?
The value was “decrease the number of scratches”.

What about the “KM-023 concentrations at 24 h post-dose” value [3] of the same compound?
The value was “above 0.300 ng/mL”.

What about the abnormal clinical signs [3] of the same compound?
The abnormal clinical signs was “No abnormal clinical signs were observed”.

What about the “bioavailability of the KM-023 formulation” value [3] of the same compound?
The value was 0.2-0.8%.

What about the blood exposure [3] of the same compound?
Its blood exposure is “dose dependent blood exposure”.

And the tmax [3]?
Its tmax is 49.8 min.

And the Half-time ([3]; iv)?
The Half-time was 3.3 to 4.2 h.

What about the “apparent maximum concentration time (tmax)” value ([3]; iv) of the same compound?
Its value is 5 min.

And the AUC0-8 h ([3]; iv, 1 mg/kg)?
Its AUC0-8 h is 314 ng·h/mL.

And the AUC0-h ([3]; iv, 1 mg/kg)?
Its AUC0-h is 320 ng·h/mL.

And the “AUC0-t/dose (lower part of table, beside AUC0-h)” value ([3]; iv, 1 mg/kg)?
Its value is 320 (h * ng/mL)/(mg/kg).

And the “AUC0-t/dose (upper part of table, beside AUC0-8 h)” value ([3]; iv, 1 mg/kg)?
Its value is 314 (h * ng/mL)/(mg/kg).

What about the C0 ([3]; iv, 1 mg/kg) of the same compound?
Its C0 is 422 ng/mL.

What about the Vz/F ([3]; iv, 1 mg/kg) of the same compound?
The Vz/F was 19.1 L/kg.

And the AUC0-8 h ([3]; iv, 5 mg/kg)?
The AUC0-8 h was 1300 ng·h/mL.

What about the AUC0-h ([3]; iv, 5 mg/kg) of the same compound?
Its AUC0-h is 1300 ng·h/mL.

What about the “AUC0-t/dose (lower part of table, beside AUC0-h)” value ([3]; iv, 5 mg/kg) of the same compound?
The value was 261 (h * ng/mL)/(mg/kg).

And the “AUC0-t/dose (upper part of table, beside AUC0-8 h)” value ([3]; iv, 5 mg/kg)?
The value was 260 (h * ng/mL)/(mg/kg).

And the C0 ([3]; iv, 5 mg/kg)?
Its C0 is 2340 ng/mL.

And the Vz/F ([3]; iv, 5 mg/kg)?
Its Vz/F is 18.2 L/kg.

And the AUC0-8 h ([3]; iv, 10 mg/kg)?
The AUC0-8 h was 2800 ng·h/mL.

What about the AUC0-h ([3]; iv, 10 mg/kg) of the same compound?
The AUC0-h was 2910 ng·h/mL.

And the “AUC0-t/dose (lower part of table, beside AUC0-h)” value ([3]; iv, 10 mg/kg)?
Its value is 291 (h * ng/mL)/(mg/kg).

What about the “AUC0-t/dose (upper part of table, beside AUC0-8 h)” value ([3]; iv, 10 mg/kg) of the same compound?
The value was 280 (h * ng/mL)/(mg/kg).

What about the C0 ([3]; iv, 10 mg/kg) of the same compound?
Its C0 is 6880 ng/mL.

And the “time of maximum concentration (tmax)” value ([3]; po)?
The value was 5 to 30 min.

What about the AUC0-24 h ([3]; po, 1 mg/kg) of the same compound?
Its AUC0-24 h is 0.442 ng·h/mL.

What about the AUC0-t/dose ([3]; po, 1 mg/kg) of the same compound?
Its AUC0-t/dose is 0.442 kg·ng·h/mL/mg.

What about the “AUC0-∞” value ([3]; po, 1 mg/kg) of the same compound?
Its value is 0.596 ng·h/mL.

And the AUC0-24 h ([3]; po, 5 mg/kg)?
The AUC0-24 h was 1.31 ng·h/mL.

And the AUC0-t/dose ([3]; po, 5 mg/kg)?
The AUC0-t/dose was 0.262 kg·ng·h/mL/mg.

And the “AUC0-∞” value ([3]; po, 5 mg/kg)?
The value was 2.01 ng·h/mL.

And the AUC0-24 h ([3]; po, 10 mg/kg)?
Its AUC0-24 h is 23.2 ng·h/mL.

And the AUC0-t ([3]; po, 10 mg/kg)?
Its AUC0-t is 31.2 ng·h/mL.

And the AUC0-t/dose ([3]; po, 10 mg/kg)?
The AUC0-t/dose was 2.32 kg·ng·h/mL/mg.

What about the “AUC0-∞” value ([3]; po, 10 mg/kg) of the same compound?
Its value is 23.2 ng·h/mL.

And the “AUC0-∞/dose” value ([3]; po, 10 mg/kg)?
The value was 3.12 kg·ng·h/mL/mg.

What about the “Dose proportionality of plasma AUC0-8 h” value [4] of the same compound?
The value was “roughly more than dose proportional manner”.

And the “BBB crossing / CNS entry” value ([4]; po)?
Its value is “does not cross BBB”.

What about the “Distribution in CSF” value ([4]; po) of the same compound?
The value was “did not distribute well in CSF”.

And the Distribution in skin ([4]; po)?
Its Distribution in skin is “distributed well in skin”.

And the Systemic absorption ([4]; po)?
Its Systemic absorption is “acceptable systemic absorption”.

What about the tmax in plasma ([4]; po, 20 mg/kg) of the same compound?
The tmax in plasma was 15 min.

And the “Exposure ratio CSF/plasma of AUC0-8 h” value ([4]; po, 60 mg/kg)?
Its value is 0.0150-0.0162.

And the “Exposure ratio skin/plasma of AUC0-8 h” value ([4]; po, 60 mg/kg)?
The value was 0.437-0.816.

What about the tmax ([4]; po, 60 mg/kg) of the same compound?
Its tmax is 0.250.

And the “tmax in CSF” value ([4]; po, 60 mg/kg)?
Its value is 15 min.

And the tmax in plasma ([4]; po, 60 mg/kg)?
Its tmax in plasma is 30 min.

What about the tmax in skin ([4]; po, 60 mg/kg) of the same compound?
The tmax in skin was 15 min to 1-hour.

What about the “Decrease of number of scratches” value ([5]; oral KM-023 1 mg/kg group) of the same compound?
Its value is 56.25%.

And the “Decrease of number of scratches” value ([5]; oral KM-023 10 mg/kg group)?
The value was 68.8%.

And the Anti-itching effect ([5]; oral pretreatment, SLIGRL induced scratch behaviour)?
Its Anti-itching effect is “anti-pruritic activity”.
